We go through 24 molecules from US20230399312A1, “SUBSTITUTED PYRIMIDINES AND METHODS OF USE” (THERAVANCE BIOPHARMA R&D IP, LLC, priority 2020, published 2023).

Bounds are passed on as bounds.

The target in assay [1] is T1, recombinant human ALK5 (TGF-βR1) protein (Homo sapiens, UniProt P36897).
T1 construct: purchased Life Technologies PR9075A
T1 sequence (P36897 34-503): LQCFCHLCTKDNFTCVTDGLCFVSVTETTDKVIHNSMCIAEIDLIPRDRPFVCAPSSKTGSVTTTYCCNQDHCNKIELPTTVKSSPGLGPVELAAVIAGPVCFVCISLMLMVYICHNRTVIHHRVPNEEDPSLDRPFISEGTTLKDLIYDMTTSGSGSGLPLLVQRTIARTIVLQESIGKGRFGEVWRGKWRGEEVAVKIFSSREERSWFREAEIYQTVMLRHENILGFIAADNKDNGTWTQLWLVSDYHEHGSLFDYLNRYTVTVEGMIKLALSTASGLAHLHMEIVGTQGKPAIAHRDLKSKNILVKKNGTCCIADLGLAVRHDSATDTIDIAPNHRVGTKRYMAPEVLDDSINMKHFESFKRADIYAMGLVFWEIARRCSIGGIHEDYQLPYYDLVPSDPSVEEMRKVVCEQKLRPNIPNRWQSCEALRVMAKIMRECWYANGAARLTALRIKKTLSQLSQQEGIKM
Nature of the assay: Biochemical ALK5 (TGF-βR1) assay to measure pKi (LANCE Ultra ULight kinase assay). To be noted: apparent pKi, converted from pIC50 by Cheng-Prusoff. The essentials: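 Europium TR-FRET kinase assay: the enzyme is exposed to compound for 60 min at room temperature, and reaction with ATP runs 60 min at 37 °C. Percent inhibition relative to DMSO and SD-208 controls gives pIC50, which is converted to pKi.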
Background: Time-resolved FRET reads energy transfer from a long-lived donor to a nearby acceptor.

The test system of assay [2] is TGF-β-stimulated SMAD3 phosphorylation in BEAS-2B cells. Description: Cellular ALK5 potency assay, inhibition of TGF-β stimulated pSMAD3 formation in BEAS-2B cells. The class given is cell-based. The conditions noted are these: Homo sapiens, pSMAD3, TGF-β 10 ng/mL, read-out: BEAS2B pIC50 (converted). The essentials:
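Potency is expressed as pIC50, based on dose-dependent reduction of TGF-β-induced pSMAD3 AlphaLISA signal relative to stimulated cells without compound. BEAS-2B cells received compound 1 h before a 30 min, 10 ng/mL TGF-β challenge.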

Consider `Cc1cccc(-c2nccc(Nc3ccnc(Nc4ccc(NC(=O)C5CCNCC5)c(Cl)c4)n3)n2)n1` [Compound 158, N-[2-chloro-4-[[4-[[2-(6-methyl-2-pyridyl)pyrimidin-4-yl]amino]pyrimidin-2-yl]amino]phenyl]piperidine-4-carboxamide], for which the Ki in assay [1] is 0.0398 to 0.316 nM. Besides, the IC50 in assay [2] is 25.1 to 158 nM.
Regarding `Cc1cccc(-c2nccc(Nc3ccnc(Nc4ccc(N5CCNCC5CC(=O)OC5CNC5)cc4)n3)n2)n1` (stereo not drawn) [Compound 159, azetidin-3-yl 2-[1-[4-[[4-[[2-(6-methyl-2-pyridyl)pyrimidin-4-yl]amino]pyrimidin-2-yl]amino]phenyl]piperazin-2-yl]acetate], the Ki in assay [1] was 0.0398 to 0.316 nM. Besides, in assay [2], the IC50 is 200 to 1260 nM.
Consider `Cc1cccc(-c2nccc(Nc3ccnc(Nc4ccc5c(c4)CCNCC5)n3)n2)n1` [Compound 160, N4-[2-(6-methyl-2-pyridyl)pyrimidin-4-yl]-N2-(2,3,4,5-tetrahydro-1H-3-benzazepin-7-yl)pyrimidine-2,4-diamine], for which the Ki in assay [1] was 0.0398 to 0.316 nM. Further, the IC50 in assay [2] was 25.1 to 158 nM.
As for `Cc1cccc(-c2nccc(Nc3ccnc(Nc4ccc(CN5CCC(C(=O)O[C@H]6CCN(C)C6)C5)cc4)n3)n2)n1` (stereo partly drawn) [Compound 161, [(3S)-1-methylpyrrolidin-3-yl] 1-[[4-[[4-[[2-(6-methyl-2-pyridyl)pyrimidin-4-yl]amino]pyrimidin-2-yl]amino]phenyl]methyl] pyrrolidine-3-carboxylate], in assay [1], the Ki was 0.0398 to 0.316 nM. Also, the IC50 in assay [2] was no more than 20 nM.
Taken in the same sequence, the figures for `Cc1cccc(-c2nccc(Nc3ccnc(Nc4ccc(NS(=O)(=O)c5ccc(C(N)=O)cc5)cc4)n3)n2)n1` [Compound 162, 4-[[4-[[4-[[2-(6-methyl-2-pyridyl)pyrimidin-4-yl]amino]pyrimidin-2-yl]amino]phenyl]sulfamoyl] benzamide] were 0.398 to 3.16 nM and 200 to 1260 nM.
Taken in the same sequence, the figures for `Cc1cccc(-c2nccc(Nc3ccnc(Nc4ccc(CN5CC6(CNC6)C5)cc4)n3)n2)n1` [Compound 163, N2-[4-(2,6-diazaspiro[3.3]heptan-2-ylmethyl)phenyl]-N4-[2-(6-methyl-2-pyridyl)pyrimidin-4-yl]pyrimidine-2,4-diamine] were 0.0398 to 0.316 nM and 25.1 to 158 nM.
Taken in the same sequence, the figures for `Cc1cccc(-c2nccc(Nc3ccnc(Nc4cccc(NC(=O)C5(CO)CNC5)c4)n3)n2)n1` [Compound 164, 3-(hydroxymethyl)-N-[3-[[4-[[2-(6-methyl-2-pyridyl)pyrimidin-4-yl]amino]pyrimidin-2-yl]amino]phenyl]azetidine-3-carboxamide] were 0.0398 to 0.316 nM and 25.1 to 158 nM.
Consider `Fc1ccc(Cl)cc1-c1nccc(Nc2ccnc(Nc3ccc(CN4CCOCC4)cc3)n2)n1` [Compound 165, N4-[2-(5-chloro-2-fluoro-phenyl)pyrimidin-4-yl]-N2-[4-(morpholinomethyl)phenyl] pyrimidine-2,4-diamine], for which the Ki in assay [1] was 3.98 to 31.6 nM. Besides, the IC50 in assay [2] is 25.1 to 158 nM.
For `Cc1ccc(O)cc1-c1nccc(Nc2ccnc(Nc3ccc(N4CCOCC4)cc3)n2)n1` [Compound 166, 4-methyl-3-[4-[[2-(4-morpholinoanilino)pyrimidin-4-yl]amino]pyrimidin-2-yl]phenol] the same measures were 3.98 to 31.6 nM and 25.1 to 158 nM.
For `Cc1cccc(-c2nccc(Nc3ccnc(Nc4ccc(CN5CC(C(=O)OC6CNC6)C5)cc4)n3)n2)n1` [Compound 167, azetidin-3-yl 1-[[4-[[4-[[2-(6-methyl-2-pyridyl)pyrimidin-4-yl]amino]pyrimidin-2-yl]amino]phenyl]methyl] azetidine-3-carboxylate] the same measures were 0.0398 to 0.316 nM and 25.1 to 158 nM.
Taken in the same sequence, the figures for `Cc1cccc(-c2nccc(Nc3ccnc(Nc4cccc(NC(=O)NC5CCNC5)c4)n3)n2)n1` (stereo not drawn) [Compound 168, 1-[3-[[4-[[2-(6-methyl-2-pyridyl)pyrimidin-4-yl]amino]pyrimidin-2-yl]amino]phenyl]-3-pyrrolidin-3-yl-urea] were 0.0398 to 0.316 nM and 25.1 to 158 nM.
With `COCCn1cc(-c2ccc(Nc3nccc(Nc4ccnc(-c5cccc(C)n5)n4)n3)cc2)cn1` [Compound 169, N2-[4-[1-(2-methoxyethyl)pyrazol-4-yl]phenyl]-N4-[2-(6-methyl-2-pyridyl)pyrimidin-4-yl]pyrimidine-2,4-diamine], in assay [1], the Ki was 0.398 to 3.16 nM. For the same molecule, in assay [2], the IC50 is 25.1 to 158 nM.
For `Cc1ccc(Nc2nccc(Nc3ccnc(-c4cccc(C)n4)n3)n2)cc1` [Compound 170, N4-[2-(6-methyl-2-pyridyl)pyrimidin-4-yl]-N2-(p-tolyl)pyrimidine-2,4-diamine] the same measures were 0.398 to 3.16 nM and 25.1 to 158 nM.
In the case of `COC(=O)C1CN(CCNc2ccc(Nc3nccc(Nc4ccnc(-c5cccc(C)n5)n4)n3)cc2)CCN1C(C)C` (stereo not drawn) [Compound 171, methyl 1-isopropyl-4-[2-[4-[[4-[[2-(6-methyl-2-pyridyl)pyrimidin-4-yl]amino]pyrimidin-2-yl]amino]anilino]ethyl] piperazine-2-carboxylate], in assay [1], the Ki was 0.398 to 3.16 nM. In assay [2], the IC50 is 25.1 to 158 nM.
For `COC(=O)[C@H]1CN(c2ccc(Nc3nccc(Nc4ccnc(-c5cccc(C)n5)n4)n3)cc2)CCN1` [Compound 172, methyl (2R)-4-[4-[[4-[[2-(6-methyl-2-pyridyl)pyrimidin-4-yl]amino]pyrimidin-2-yl]amino]phenyl]piperazine-2-carboxylate] the same measures were 0.0398 to 0.316 nM and 25.1 to 158 nM.
Taken in the same sequence, the figures for `Cc1cccc(-c2nccc(Nc3ccnc(Nc4ccc(N5CCCC(C(=O)OC6CNC6)C5)cc4)n3)n2)n1` (stereo not drawn) [Compound 173, azetidin-3-yl 1-[4-[[4-[[2-(6-methyl-2-pyridyl)pyrimidin-4-yl]amino]pyrimidin-2-yl]amino]phenyl]piperidine-3-carboxylate] were 0.0398 to 0.316 nM and 25.1 to 158 nM.
On to `Cc1cccc(-c2nccc(Nc3ccnc(Nc4ccc(CN5CC(C(=O)O[C@H]6CCNC6)C5)cc4)n3)n2)n1` [Compound 174, [(3S)-pyrrolidin-3-yl] 1-[[4-[[4-[[2-(6-methyl-2-pyridyl)pyrimidin-4-yl]amino]pyrimidin-2-yl]amino]phenyl]methyl] azetidine-3-carboxylate], for which, in assay [1], the Ki was 0.0398 to 0.316 nM. Moreover, the IC50 in assay [2] is 25.1 to 158 nM.
Taken in the same sequence, the figures for `Cc1cccc(-c2nccc(Nc3ccnc(Nc4ccc5c(c4)CNCC5)n3)n2)n1` [Compound 175, N4-(2-(6-methylpyridin-2-yl)pyrimidin-4-yl)-N2-(1,2,3,4-tetrahydroisoquinolin-7-yl)pyrimidine-2,4-diamine] were no more than 0.0316 nM and 25.1 to 158 nM.
Taken in the same sequence, the figures for `CNC1CCN(S(=O)(=O)c2cccc(Nc3nccc(Nc4ccnc(-c5cccc(C)n5)n4)n3)c2)CC1` [Compound 176, N2-[3-[[4-(methylamino)-1-piperidyl]sulfonyl]phenyl]-N4-[2-(6-methyl-2-pyridyl)pyrimidin-4-yl]pyrimidine-2,4-diamine] were 0.398 to 3.16 nM and 25.1 to 158 nM.
Taken in the same sequence, the figures for `Cc1cccc(-c2nccc(Nc3ccnc(Nc4ccc(CN5CC6CCCC(C5)N6)cc4)n3)n2)n1` [Compound 177, N2-[4-(3,9-diazabicyclo[3.3.1]nonan-3-ylmethyl)phenyl]-N4-[2-(6-methyl-2-pyridyl)pyrimidin-4-yl]pyrimidine-2,4-diamine] were 0.0398 to 0.316 nM and 25.1 to 158 nM.
Turning to `Cc1cccc(-c2nccc(Nc3ccnc(Nc4cccc(C(=O)OCC5CNC5)c4)n3)n2)n1` [Compound 178, azetidin-3-ylmethyl 3-((4-((2-(6-methylpyridin-2-yl)pyrimidin-4-yl)amino)pyrimidin-2-yl)amino)benzoate], the Ki in assay [1] is 0.398 to 3.16 nM. In addition, the IC50 in assay [2] is 25.1 to 158 nM.
For `Cc1ccc(O)cc1-c1nccc(Nc2ccnc(Nc3ccc(N4CCNCC4)cc3)n2)n1` [Compound 179, 4-methyl-3-[4-[[2-(4-piperazin-1-ylanilino)pyrimidin-4-yl]amino]pyrimidin-2-yl]phenol] the same measures were 0.398 to 3.16 nM and 25.1 to 158 nM.
Taken in the same sequence, the figures for `Cc1cccc(-c2nccc(Nc3ccnc(Nc4ccc(NC(=O)C5(O)CNC5)cc4)n3)n2)n1` [Compound 180, 3-hydroxy-N-[4-[[4-[[2-(6-methyl-2-pyridyl)pyrimidin-4-yl]amino]pyrimidin-2-yl]amino]phenyl]azetidine-3-carboxamide] were 0.0398 to 0.316 nM and 25.1 to 158 nM.
Taken in the same sequence, the figures for `Cc1cccc(-c2nccc(Nc3ccnc(Nc4cnn(CC5CNC5)c4)n3)n2)n1` [Compound 181, N2-[1-(azetidin-3-ylmethyl)pyrazol-4-yl]-N4-[2-(6-methyl-2-pyridyl)pyrimidin-4-yl]pyrimidine-2,4-diamine] were 0.0398 to 0.316 nM and 200 to 1260 nM.
